Assay [1] concerns HCT116-MTAP-knockout (−/−) cell strain. In words: Tumor cell proliferation inhibition assay (CellTiter-Glo), HCT116-MTAP-knockout (-/-). The class given is cell-based. The note with it: Homo sapiens, 120 h, 5-day treatment. The procedure: (§1) After the HCT116-MTAP-knockout (−/−) cell strain, the HCT116-MTAP wild-type(+/+)-cell strain, the DOHH-2 cell strain, or the Hut-78 cell strain was treated with the test compound for 5 days, the ATP level was measured using a CellTiter-Glo kit of Promega to evaluate the inhibition of the test compound against the growth of the tumor cell strain.
(§2) In the present application, the HCT116-MTAP-knockout (−/−) cell strain, the HCT116-MTAP wild-type (+/+)-cell strain, the DOHH-2 cell strain, or the Hut-78 cell strain was seeded into a 96-well cell culture plate at an appropriate cell density. After 24 h, the cells were treated using the test compounds diluted 1:3 fold at the highest concentration of 10 μM for 10 gradients, and a DMSO treatment group was set up separately. The cells were cultured in a 37° C./5% CO2 incubator for 5 days.
A general note: ATP-based viability assays read luminescence as a measure of living cells.

Assay [2] relates to HCT116-MTAP wild-type (+/+)-cell strain. Briefly: Tumor cell proliferation inhibition assay (CellTiter-Glo), HCT116-MTAP wild-type (+/+). The class given is cell-based. The note with it: Homo sapiens, 120 h, 5-day treatment. The method, then:
as §1, §2

Assay [3] concerns the target MAT2A recombinant protein (Homo sapiens, UniProt P31153). In words: MAT2A inhibitory activity (malachite green colorimetric enzyme assay). The class given is biochemical. An excerpt:
MAT2A catalyzes the reaction of L-methionine and ATP to generate S-adenosylmethionine (SAM), inorganic phosphonic acid, and inorganic diphosphonic acid. Malachite green reacts with inorganic phosphonic acid to generate a green product, and the enzyme activity of MAT2A can be indirectly reflected by detecting the content of the inorganic phosphonic acid in a sample.
The test compounds were formulated using DMSO and diluted 1:3 diluted through 10 concentration points to give a final starting concentration in the reaction system of 1000 nM. The test compounds at different concentrations described above were transferred to a 384-well plate. Experimental buffer (50 mM HEPES pH 7.5, 50 mM KCl, 10 mM MgCl2, 10 mM DTT) was prepared. 2×MAT2A recombinant protein was prepared using the buffer and added to a 384-well plate. A mixed solution of 2×L-methionine and ATP was prepared using the buffer, and added to a 384-well plate. The enzymatic reaction was started, and the reaction was carried out at room temperature for 60 min. 20 μL of a colorimetric detection reagent was added to the above system, and incubated at room temperature for 15 min. The absorbance at 630 nm was measured. The inhibition rate of the compound on the enzyme activity was calculated, and the inhibition rate value and the logarithm value of the compound concentration were fitted using non-linear regression (dose response-variable slope) to give the IC50 value of the test compound.

For assay [4], the system named is SDMA in HCT116-MTAP-knockout cell line. Briefly: Cell symmetric dimethylarginine (SDMA) test, In-cell Western, HCT116-MTAP-knockout. Format: cell-based. As to conditions: Homo sapiens, 96 h.
The mark [5] stands for this setting: HCT116-MTAP−/− cells, IC50 class score, read-out: Tumor cell 5-day relative growth inhibition (HCT116-MTAP−/−) (nM), score.
The mark [6] stands for this setting: HCT116-MTAP−/− cells, read-out: Tumor cell 5-day relative growth inhibition (HCT116-MTAP−/−).
[7] abbreviates: HCT116-MTAP+/+ cells, IC50 class score, read-out: Tumor cell 5-day relative growth inhibition (HCT116-MTAP+/+) (nM), score.
Where [8] appears, read: HCT116-MTAP+/+ cells, read-out: Tumor cell 5-day relative growth inhibition (HCT116-MTAP+/+).
[9] abbreviates: HCT116-MTAP-knockout (−/−) cells, IC50 score, read-out: Tumor cell 5-day relative growth inhibition (HCT116-MTAP−/−) (nM), score.
Where [10] appears, read: HCT116-MTAP-knockout (−/−) cells, IC50 value, read-out: Tumor cell 5-day relative growth inhibition (HCT116-MTAP−/−).
Where [11] appears, read: HCT116-MTAP wild-type (+/+) cells, IC50 score, read-out: Tumor cell 5-day relative growth inhibition (HCT116-MTAP+/+) (nM), score.
Setting [12] is: HCT116-MTAP wild-type (+/+) cells, IC50 value, read-out: Tumor cell 5-day relative growth inhibition (HCT116-MTAP+/+).
The mark [13] stands for this setting: IC50 score class, read-out: MAT2A Inhibition (score).
Where [14] appears, read: IC50 score class, read-out: Cell 96 h SDMA Inhibition (HCT116-MTAP−/−) (score).
Where [15] appears, read: read-out: Cell 96 h SDMA Inhibition (HCT116-MTAP−/−).

SMILES strings stand for the structures. Like-named read-outs stand apart in the source and are kept apart here.

Among the data in US20240391923A1, “METHIONINE ADENOSYLTRANSFERASE 2A INHIBITOR FOR TREATING MTAP DELETION-TYPE CANCER” (SUZHOU GENHOUSE BIO CO., LTD., priority 2022, published 2024) are IC50 values, retold here.

Sequence of MAT2A recombinant protein (P31153 whole entry): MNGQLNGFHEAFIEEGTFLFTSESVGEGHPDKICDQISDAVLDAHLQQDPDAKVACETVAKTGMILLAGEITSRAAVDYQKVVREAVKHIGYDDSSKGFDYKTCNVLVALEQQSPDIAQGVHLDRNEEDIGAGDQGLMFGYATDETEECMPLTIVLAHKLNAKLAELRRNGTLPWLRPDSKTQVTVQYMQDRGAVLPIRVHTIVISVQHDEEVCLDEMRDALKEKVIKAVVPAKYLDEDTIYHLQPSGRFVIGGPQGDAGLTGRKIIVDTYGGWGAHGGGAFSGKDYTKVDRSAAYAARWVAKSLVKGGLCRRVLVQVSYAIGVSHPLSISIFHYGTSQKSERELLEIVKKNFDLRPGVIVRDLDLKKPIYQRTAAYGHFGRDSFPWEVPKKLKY

Turning to `CCOc1ccc2c3cn(C)nc3c(=O)n(-c3ccc(OC(F)F)cc3)c2n1` [Compound B400], the IC50 in assay [1] (setting [5]) was at least 2000 nM; in assay [1] (setting [6]), over 10000 nM; in assay [2] (setting [7]) it was at least 2000 nM; in assay [2] (setting [8]) it was over 10000 nM.
With `Cn1cc2c(n1)c(=O)n(-c1cccnc1C(F)(F)F)c1cc(Cl)c(F)cc21` [Compound B342], the IC50 is under 500 nM in assay [1] (setting [9]), 355 nM in assay [1] (setting [10]), at least 2000 nM in assay [2] (setting [11]) and over 10000 nM in assay [2] (setting [12]).
In the case of `Cn1cnc2c(=O)n(-c3ccc4ncccc4c3)c3nc(C(F)(F)F)ccc3c21` [Compound B401], the IC50 in assay [1] (setting [5]) was at least 2000 nM; in assay [1] (setting [6]), over 10000 nM; in assay [2] (setting [7]), at least 2000 nM; in assay [2] (setting [8]) it was over 10000 nM.
For the molecule `Cn1cnc2c(=O)n(-c3cccc4ncccc34)c3nc(C(F)(F)F)ccc3c21` [Compound B408], the IC50 in assay [1] (setting [5]) was at least 2000 nM; in assay [1] (setting [6]), over 10000 nM; in assay [2] (setting [7]), at least 2000 nM; in assay [2] (setting [8]), over 10000 nM.
As to `Cn1cnc2c(=O)n(-c3ccc4ccccc4n3)c3nc(C(F)(F)F)ccc3c21` [Compound B402], the IC50 in assay [3] (setting [13]) is over 1000 nM; in assay [3] (read-out: MAT2A Inhibition), over 10000 nM; in assay [1] (setting [5]) it was at least 2000 nM; in assay [1] (setting [6]) it was over 10000 nM; in assay [2] (setting [7]) it was at least 2000 nM; in assay [2] (setting [8]) it was over 10000 nM.
Regarding `Cn1cnc2c(=O)n(-c3ccc4ccccc4c3)c3nc(C(F)(F)F)ccc3c21` [Compound B404], the IC50 is over 1000 nM in assay [3] (setting [13]); over 10000 nM in assay [3] (read-out: MAT2A Inhibition); at least 2000 nM in assay [1] (setting [5]); over 10000 nM in assay [1] (setting [6]); at least 2000 nM in assay [2] (setting [7]); over 10000 nM in assay [2] (setting [8]).
In the case of `Cn1cc2c(n1)c(=O)n(-c1cccc3[nH]ncc13)c1cc(Cl)cnc21` [Compound B273], the IC50 in assay [3] (setting [13]) is under 100 nM; in assay [3] (read-out: MAT2A Inhibition) it was 83 nM; in assay [4] (setting [14]), 200 to 1000 nM; in assay [4] (setting [15]) it was 517 nM; in assay [1] (setting [9]), 500 to 2000 nM; in assay [1] (setting [10]), 1400 nM. Besides, the IC50 in assay [2] (setting [11]) was at least 2000 nM; in assay [2] (setting [12]) it was 7600 nM.
Regarding `Cn1ncc2c3ccc(C(F)(F)F)nc3n(-c3ccccc3Cl)c(=O)c21` [Compound B410], the IC50 in assay [3] (setting [13]) is over 1000 nM; in assay [3] (read-out: MAT2A Inhibition) it was over 10000 nM; in assay [1] (setting [5]) it was at least 2000 nM; in assay [1] (setting [6]), over 10000 nM; in assay [2] (setting [7]), at least 2000 nM; in assay [2] (setting [8]) it was over 10000 nM.
As for `Cn1cnc2c(=O)n(-c3cccc4ccncc34)c3nc(C(F)(F)F)ccc3c21` [Compound B407], the IC50 in assay [1] (setting [5]) was at least 2000 nM; in assay [1] (setting [6]) it was over 10000 nM; in assay [2] (setting [7]), at least 2000 nM; in assay [2] (setting [8]), over 10000 nM.
In the case of `Cn1cnc2c(=O)n(-c3cncc4ccccc34)c3nc(C(F)(F)F)ccc3c21` [Compound B406], the IC50 in assay [1] (setting [5]) is at least 2000 nM; in assay [1] (setting [6]), over 10000 nM; in assay [2] (setting [7]), at least 2000 nM; in assay [2] (setting [8]), over 10000 nM.
In the case of `Cn1cnc2c(=O)n(-c3cnc4ccccc4c3)c3nc(C(F)(F)F)ccc3c21` [Compound B403], the IC50 is over 1000 nM in assay [3] (setting [13]); over 10000 nM in assay [3] (read-out: MAT2A Inhibition); at least 2000 nM in assay [1] (setting [5]); over 10000 nM in assay [1] (setting [6]); at least 2000 nM in assay [2] (setting [7]); over 10000 nM in assay [2] (setting [8]).
`Cn1cc2c(n1)c(=O)n(-c1cccnc1C1CC1)c1cc(Cl)c(C#N)cc21` [Compound B348]: the IC50 in assay [1] (setting [9]) was at least 2000 nM; in assay [1] (setting [10]), over 10000 nM; in assay [2] (setting [11]), at least 2000 nM; in assay [2] (setting [12]), at least 10000 nM.
Regarding `CCn1cc2c(n1)c(=O)n(-c1ccccc1)c1cc(Cl)ccc21` [Compound B2], the IC50 was 100 to 1000 nM in assay [3] (setting [13]), 105 nM in assay [3] (read-out: MAT2A Inhibition), at least 2000 nM in assay [1] (setting [9]) and 2830 nM in assay [1] (setting [10]).
For `Cc1c2c(nn1C(F)F)c(=O)n(-c1cccnc1)c1nc(C(F)(F)F)ccc21` [Compound B252], the IC50 in assay [3] (setting [13]) was under 100 nM; in assay [3] (read-out: MAT2A Inhibition), 19.3 nM; in assay [4] (setting [14]), 200 to 1000 nM; in assay [4] (setting [15]), 202 nM; in assay [1] (setting [9]), under 500 nM; in assay [1] (setting [10]), 378 nM. For the same molecule, the IC50 in assay [2] (setting [11]) was 500 to 2000 nM; in assay [2] (setting [12]) it was 1230 nM.
With `O=c1c2nn(C(F)F)cc2c2cc(F)c(Cl)cc2n1-c1cccc2[nH]ncc12` [Compound B260], the IC50 was under 100 nM in assay [3] (setting [13]); 17 nM in assay [3] (read-out: MAT2A Inhibition); under 200 nM in assay [4] (setting [14]); 57.5 nM in assay [4] (setting [15]); under 500 nM in assay [1] (setting [9]); 69.7 nM in assay [1] (setting [10]).
`Cn1cnc2c(=O)n(-c3cccc4[nH]ncc34)c3cc(Cl)c(C#N)cc3c21` [Compound B375]: the IC50 in assay [1] (setting [9]) was at least 2000 nM; in assay [1] (setting [10]), over 10000 nM; in assay [2] (setting [11]), at least 2000 nM; in assay [2] (setting [12]), over 10000 nM.
As for `Cc1n[nH]c2cccc(-n3c(=O)c4nn(C)cc4c4ccc(Cl)cc43)c12` [Compound B277], the IC50 was under 100 nM in assay [3] (setting [13]); 83 nM in assay [3] (read-out: MAT2A Inhibition); under 200 nM in assay [4] (setting [14]); 61 nM in assay [4] (setting [15]); under 500 nM in assay [1] (setting [9]); 327 nM in assay [1] (setting [10]). The figures for the IC50 in assay [2] (setting [11]) and in assay [2] (setting [12]) were 500 to 2000 nM and 875 nM, respectively.
As to `Cn1cnc2c(=O)n(-c3ccc4ncccc4n3)c3nc(C(F)(F)F)ccc3c21` [Compound B405], the IC50 was over 1000 nM in assay [3] (setting [13]); over 10000 nM in assay [3] (read-out: MAT2A Inhibition); at least 2000 nM in assay [1] (setting [5]); over 10000 nM in assay [1] (setting [6]); at least 2000 nM in assay [2] (setting [7]); over 10000 nM in assay [2] (setting [8]).
Regarding `O=c1c2n[nH]cc2c2ccc(C(F)(F)F)nc2n1-c1ccccc1Cl` [Compound B409], the IC50 was 500 to 2000 nM in assay [1] (setting [5]), 1530 nM in assay [1] (setting [6]), at least 2000 nM in assay [2] (setting [7]) and 4040 nM in assay [2] (setting [8]).
